Starred links: 1 amine or outer side, 2 acyl side, 3 side chain; linkers in the order of their positions; H or OH if unused. Non-standard residues stand in square brackets, D forms with d. Residues, ends and D or L forms follow the SMILES beside them. *: point of attachment. C20 diacid = O=C(O)CCCCCCCCCCCCCCCCCCC(=O)*; C18 diacid = O=C(O)CCCCCCCCCCCCCCCCC(=O)*; γGlu = O=C(O)[C@H](CCC(=O)[*:2])N[*:1]; βAsp = O=C(O)[C@H](CC(=O)[*:2])N[*:1]; Hyp = O=C(O)[C@@H]1C[C@@H](O)CN1; Trx = NC[C@H]1CC[C@H](C(=O)O)CC1
What was measured:
[1] = Heat accelerated stability assay, 40° C., detection on 7 d and 28 d; type: physicochemical; conditions: for Purity from the reversed phase chromatography-214 nm, 0 d / Purity from the reversed phase chromatography-214 nm, 7 d / Purity from the reversed phase chromatography-214 nm, 28 d: 1 mg/mL, pH about 7.4, 40° C.; for Change (7 d − 0 d): purity on 7 d − purity on 0 d; for Change (7 d − 0 d) / Change (28 d − 0 d): 40° C., pH about 7.4; for Change (28 d − 0 d): purity on 28 d − purity on 0 d
Experimental: The derivatives (1 mg/mL) were mixed with sodium dihydrogen phosphate (1.42 mg/mL) and dissolved in ultrapure water. After adjusting pH to about 7.4 with hydrochloric acid/sodium hydroxide, the solution was filtered into a sterilized vial in a clean bench using a 0.22 μm sterile filter. The vial was then capped and placed into the stability test chamber at 40° C. Detections were made on Days 7 (7d) and 28 (28d), and during the assay, changes in the characteristics and properties of the polypeptides were observed and recorded. The sample was then centrifuged for 3 min at 10000 rpm at 4° C., and the supernatant was transferred to a liquid phase sample vial for detecting the concentration and purity of the polypeptides using liquid phase chromatography described as below.
Conditions of the reversed phase chromatography Flow rate: 1.0 mL/min; Autosampler temperature: 15° C.; Column temperature: 25° C.; Detection wavelength: 214 nm; Mobile phase A: 100% H2O+0.05% TFA; Mobile phase B: 100% ACN; and Gradient of elution listed in Table 4: […]

human amylin receptors = target: T1, human amylin receptors (Homo sapiens, UniProt O60896+P30988); experiment: Luciferase assay in stably transfected amylin receptor/CRE-luc CHO cell line; type: cell-based; conditions: for Relative activity: EC50 ratio of Cagrilintide to the compound, Cagrilintide 100%; for EC50: amylin receptor/CRE-luc CHO cells, 24 hours incubation, luminescence
T1 construct: host or cells: CHO-K1/Ga15/AMY3 cells, further stably transfected with a CRE-luciferase plasmid
T1 sequence (P30988 25-474): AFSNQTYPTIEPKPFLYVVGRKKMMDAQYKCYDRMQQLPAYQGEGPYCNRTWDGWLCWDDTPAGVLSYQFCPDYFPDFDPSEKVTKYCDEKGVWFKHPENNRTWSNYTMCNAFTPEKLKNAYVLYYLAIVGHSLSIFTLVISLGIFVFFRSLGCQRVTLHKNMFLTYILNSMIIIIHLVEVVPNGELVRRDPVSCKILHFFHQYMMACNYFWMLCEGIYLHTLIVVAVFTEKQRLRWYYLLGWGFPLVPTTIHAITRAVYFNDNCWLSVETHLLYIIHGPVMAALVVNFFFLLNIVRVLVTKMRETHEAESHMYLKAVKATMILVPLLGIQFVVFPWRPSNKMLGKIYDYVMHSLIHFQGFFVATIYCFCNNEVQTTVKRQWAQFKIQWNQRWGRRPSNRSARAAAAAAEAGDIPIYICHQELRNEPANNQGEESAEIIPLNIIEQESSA
T1 sequence (O60896 24-148 partner): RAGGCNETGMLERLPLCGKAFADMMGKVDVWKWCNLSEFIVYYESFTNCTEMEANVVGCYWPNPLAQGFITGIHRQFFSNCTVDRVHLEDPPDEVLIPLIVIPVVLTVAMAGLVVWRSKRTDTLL

Row | Compound | Purity from the reversed phase chromatography-214 nm, 28 d [1] | Change (7 d − 0 d) [1] | Relative activity (human amylin receptors) | EC50 (human amylin receptors) | other results
1 | M10: ASQLSTAVLQRLADFLRHFTDRDRDILPPTNVGSNTP-NH2 (SEQ ID No. 10), N-terminal side chain C20 diacid + γGlu ({C20 diacid-γGlu}-ASQLSTAVLQRLADFLRHFTDRDRDILPPTNVGSNTP-NH2; SMILES CC[C@H](C)[C@H](NC(=O)[C@H](CC(=O)O)NC(=O)[C@H](CCCNC(=N)N)NC(=O)[C@H](CC(=O)O)NC(=O)[C@H](CCCNC(=N)N)NC(=O)[C@H](CC(=O)O)NC(=O)[C@@H](NC(=O)[C@H](Cc1ccccc1)NC(=O)[C@H](Cc1c[nH]cn1)NC(=O)[C@H](CCCNC(=N)N)NC(=O)[C@H](CC(C)C)NC(=O)[C@H](Cc1ccccc1)NC(=O)[C@H](CC(=O)O)NC(=O)[C@H](C)NC(=O)[C@H](CC(C)C)NC(=O)[C@H](CCCNC(=N)N)NC(=O)[C@H](CCC(N)=O)NC(=O)[C@H](CC(C)C)NC(=O)[C@@H](NC(=O)[C@H](C)NC(=O)[C@@H](NC(=O)[C@H](CO)NC(=O)[C@H](CC(C)C)NC(=O)[C@H](CCC(N)=O)NC(=O)[C@H](CO)NC(=O)[C@H](C)NC(=O)CC[C@H](NC(=O)CCCCCCCCCCCCCCCCCCC(=O)O)C(=O)O)[C@@H](C)O)C(C)C)[C@@H](C)O)C(=O)N[C@@H](CC(C)C)C(=O)N1CCC[C@H]1C(=O)N1CCC[C@H]1C(=O)N[C@H](C(=O)N[C@@H](CC(N)=O)C(=O)N[C@H](C(=O)NCC(=O)N[C@@H](CO)C(=O)N[C@@H](CC(N)=O)C(=O)N[C@H](C(=O)N1CCC[C@H]1C(N)=O)[C@@H](C)O)C(C)C)[C@@H](C)O) | 93.8% | 0.16% | – | – | Purity from the reversed phase chromatography-214 nm, 0 d ([1]; in % (unit assumed)): 94.73; Purity from the reversed phase chromatography-214 nm, 7 d ([1]; in % (unit assumed)): 94.89; Change (28 d − 0 d) ([1]; in % (unit assumed)): −0.93
2 | CC[C@H](C)[C@H](NC(=O)[C@@H]1CCCN1C(=O)[C@H](CCCCN)NC(=O)[C@H](CC(C)C)NC(=O)[C@H](CC(N)=O)NC(=O)[C@H](CC(N)=O)NC(=O)[C@H](CO)NC(=O)[C@H](CO)NC(=O)[C@H](Cc1c[nH]cn1)NC(=O)[C@H](CCCNC(=N)N)NC(=O)[C@H](CC(C)C)NC(=O)[C@H](Cc1ccccc1)NC(=O)[C@H](CC(=O)O)NC(=O)[C@H](C)NC(=O)[C@H](CC(C)C)NC(=O)[C@H](CCCNC(=N)N)NC(=O)[C@H](CCC(N)=O)NC(=O)[C@H](CC(C)C)NC(=O)[C@@H](NC(=O)[C@H](C)NC(=O)[C@@H](NC(=O)[C@H](CO)NC(=O)[C@H](CC(C)C)NC(=O)[C@H](CCC(N)=O)NC(=O)[C@H](CO)NC(=O)[C@H](C)NC(=O)CC[C@H](NC(=O)CCCCCCCCCCCCCCCCCCC(=O)O)C(=O)O)[C@@H](C)O)C(C)C)C(=O)N[C@@H](CC(C)C)C(=O)N1CCC[C@H]1C(=O)N1CCC[C@H]1C(=O)N[C@H](C(=O)N[C@@H](CC(N)=O)C(=O)N[C@H](C(=O)NCC(=O)N[C@@H](CO)C(=O)N[C@@H](CC(N)=O)C(=O)N[C@H](C(=O)N1C[C@H](O)C[C@H]1C(N)=O)[C@@H](C)O)C(C)C)[C@@H](C)O [M9] ({C20 diacid-γGlu}-ASQLSTAVLQRLADFLRHSSNNLKPILPPTNVGSNT[Hyp]-NH2) | 90.99 | 1.47 | 100% | 0.026 nM | Purity from the reversed phase chromatography-214 nm, 0 d [1]: 88.15; Purity from the reversed phase chromatography-214 nm, 7 d [1]: 89.62; Change (28 d − 0 d) [1]: 2.84
3 | CC[C@H](C)[C@H](NC(=O)[C@H](CC(=O)O)NC(=O)[C@H](CCCNC(=N)N)NC(=O)[C@H](CC(=O)O)NC(=O)[C@H](CCCNC(=N)N)NC(=O)[C@H](CC(=O)O)NC(=O)[C@@H](NC(=O)[C@H](Cc1ccccc1)NC(=O)[C@H](Cc1c[nH]cn1)NC(=O)[C@H](CCCNC(=N)N)NC(=O)[C@H](CC(C)C)NC(=O)[C@H](Cc1ccccc1)NC(=O)[C@H](CC(=O)O)NC(=O)[C@H](C)NC(=O)[C@H](CC(C)C)NC(=O)[C@H](CCCNC(=N)N)NC(=O)[C@H](CCC(N)=O)NC(=O)[C@@H](NC(=O)[C@H](C)NC(=O)[C@H](C)NC(=O)[C@@H](NC(=O)[C@H](CO)NC(=O)[C@H](CC(C)C)NC(=O)[C@H](CCC(N)=O)NC(=O)[C@H](CO)NC(=O)[C@H](C)NC(=O)C[C@H](NC(=O)CCCCCCCCCCCCCCCCCCC(=O)O)C(=O)O)[C@@H](C)O)[C@@H](C)O)[C@@H](C)O)C(=O)N[C@@H](CC(C)C)C(=O)N1CCC[C@H]1C(=O)N1CCC[C@H]1C(=O)N[C@H](C(=O)N[C@@H](CC(N)=O)C(=O)N[C@H](C(=O)NCC(=O)N[C@@H](CO)C(=O)N[C@@H](CC(N)=O)C(=O)N[C@H](C(=O)N1CCC[C@H]1C(N)=O)[C@@H](C)O)C(C)C)[C@@H](C)O [M12] ({C20 diacid-βAsp}-ASQLSTAATQRLADFLRHFTDRDRDILPPTNVGSNTP-NH2) | – | – | 78% | 0.034 nM | –
4 | CC[C@H](C)[C@H](NC(=O)[C@@H]1CCCN1C(=O)[C@H](CCCCN)NC(=O)[C@H](CC(C)C)NC(=O)[C@H](CC(N)=O)NC(=O)[C@H](CC(N)=O)NC(=O)[C@H](CO)NC(=O)[C@H](CO)NC(=O)[C@H](Cc1c[nH]cn1)NC(=O)[C@H](CCCNC(=N)N)NC(=O)[C@H](CC(C)C)NC(=O)[C@H](Cc1ccccc1)NC(=O)[C@H](CC(=O)O)NC(=O)[C@H](C)NC(=O)[C@H](CC(C)C)NC(=O)[C@H](CCCNC(=N)N)NC(=O)[C@H](CCC(N)=O)NC(=O)[C@@H](NC(=O)[C@H](C)NC(=O)[C@H](C)NC(=O)[C@@H](NC(=O)[C@H](CO)NC(=O)[C@H](CC(C)C)NC(=O)[C@H](CCC(N)=O)NC(=O)[C@H](CO)NC(=O)[C@H](C)NC(=O)[C@H]1CC[C@H](CNC(=O)CCCCCCCCCCCCCCCCCCC(=O)O)CC1)[C@@H](C)O)[C@@H](C)O)C(=O)N[C@@H](CC(C)C)C(=O)N1CCC[C@H]1C(=O)N1CCC[C@H]1C(=O)N[C@H](C(=O)N[C@@H](CC(N)=O)C(=O)N[C@H](C(=O)NCC(=O)N[C@@H](CO)C(=O)N[C@@H](CC(N)=O)C(=O)N[C@H](C(=O)N1C[C@H](O)C[C@H]1C(N)=O)[C@@H](C)O)C(C)C)[C@@H](C)O [M29] ({C20 diacid-Trx}-ASQLSTAATQRLADFLRHSSNNLKPILPPTNVGSNT[Hyp]-NH2) | – | – | 412% | – | –
5 | CC[C@H](C)[C@H](NC(=O)[C@@H]1CCCN1C(=O)[C@H](CCCCN)NC(=O)[C@H](CC(C)C)NC(=O)[C@H](CC(N)=O)NC(=O)[C@H](CC(N)=O)NC(=O)[C@H](CO)NC(=O)[C@H](CO)NC(=O)[C@H](Cc1c[nH]cn1)NC(=O)[C@H](CCCNC(=N)N)NC(=O)[C@H](CC(C)C)NC(=O)[C@H](Cc1ccccc1)NC(=O)[C@H](CC(=O)O)NC(=O)[C@H](C)NC(=O)[C@H](CC(C)C)NC(=O)[C@H](CCCNC(=N)N)NC(=O)[C@H](CCC(N)=O)NC(=O)[C@@H](NC(=O)[C@H](C)NC(=O)[C@H](C)NC(=O)[C@@H](NC(=O)[C@H](CO)NC(=O)[C@H](CC(C)C)NC(=O)[C@H](CCC(N)=O)NC(=O)[C@H](CO)NC(=O)[C@H](C)NC(=O)CC[C@H](NC(=O)CCCCCCCCCCCCCCCCC(=O)O)C(=O)O)[C@@H](C)O)[C@@H](C)O)C(=O)N[C@@H](CC(C)C)C(=O)N1CCC[C@H]1C(=O)N1CCC[C@H]1C(=O)N[C@H](C(=O)N[C@@H](CC(N)=O)C(=O)N[C@H](C(=O)NCC(=O)N[C@@H](CO)C(=O)N[C@@H](CC(N)=O)C(=O)N[C@H](C(=O)N1C[C@H](O)C[C@H]1C(N)=O)[C@@H](C)O)C(C)C)[C@@H](C)O [M37] ({C18 diacid-γGlu}-ASQLSTAATQRLADFLRHSSNNLKPILPPTNVGSNT[Hyp]-NH2) | – | – | 184% | 0.03 nM | –

— patent publication US20260265329A1, “POLYPEPTIDE AND DERIVATIVE THEREOF, COMPOSITION, AND USE THEREOF” (HANGZHOU SCIWIND BIOSCIENCES CO., LTD., priority 2023, published 2026)
